This note sets out measurements from ChEMBL document CHEMBL1201862, “PubChem BioAssay data set” (2004).

Assay in all cases: inhibition of tumour cell growth, NCI panel, 48 h
Test [1] relates to A549.
The subject of test [2] is ACHN.
The subject of test [3] is HCC 2998.
For test [4], the system named is HCT-116.
The test system of test [5] is HL-60.
Test [6] relates to HT-29.
For test [7], the system named is Hs-578T.
In test [8] the test system is K562.
Test [9] deals with LOX IMVI.
In test [10] the test system is M14.
The test system of test [11] is MDA-MB-231.
The test system of test [12] is MDA-MB-435.
Test [13] relates to NCI-H23.
Test [14] deals with NCI-H460.
The test system of test [15] is SF-539.
The subject of test [16] is SK-MEL-5.
Test [17] relates to SW-620.
Test [18] relates to UO-31.
Test [19] has as its system MOLT-4.
Test [20] concerns OVCAR-4.

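Grown in 96-well plates, cells were treated for 48 hours with each compound at five concentrations. Insufficient inhibition: endpoint recorded as highest concentration tested. GI50 = concentration required for 50% inhibition of growth.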 Activity calls are given as the source filed them. Cut-off read from the data, not from the text of the source: active = GI50 up to about 1.1 µM and inactive = higher. Numbered stars: 1 amine (or outer) side, 2 acyl side, 3 side chain; on linkers, the order of the positions; unused ones are H or OH. Bridge positions count the residues as written; N and C are the ends. Square brackets hold non-standard residues; d marks the D form. Peptide text beside a SMILES is read from it. I, II: the chains in the order shown. Actinocin(9to1) = Cc1c2oc3c(C)ccc(C(=O)[*:1])c3nc-2c(C(=O)[*:2])c(N)c1=O; NMeH = CN[CH](Cc1c[nH]cn1)C(=O)O; Sar = CNCC(=O)O A value given as a limit tells only on which side of the number the result lay.

In the case of `CC(CO)(Nc1ccc([N+](=O)[O-])cc1[N+](=O)[O-])C(=O)O` (stereo unspecified), the GI50 in test [1] is 38.3 µM (inactive); in test [2], 18.7 µM (inactive); in test [3] it was 22.4 µM (inactive); in [4] it was 63.2 µM (inactive); in [5] it was 17.6 µM (inactive); in test [6], 16.7 µM (inactive). Besides, the GI50 in test [7] is 17.3 µM (inactive); in [8] it was 19.1 µM (inactive); in [9], 22.5 µM (inactive); in test [10] it was 80.2 µM (inactive); in test [11], 79.8 µM (inactive); in [12] it was 21.6 µM (inactive). Further, the GI50 in test [13] was 27.8 µM (inactive); in test [14], 15.5 µM (inactive); in test [15] it was 34 µM (inactive); in [16] it was 20.5 µM (inactive); in [17], 16.7 µM (inactive); in test [18], 15.9 µM (inactive).
Take `N#CC1=C(N)OC2=C(CCCc3ccc([N+](=O)[O-])cc32)C1c1ccccc1` (stereo unspecified): the GI50 was 6.21 µM (inactive) in test [1]; 10.8 µM (inactive) in test [2]; 2.18 µM (inactive) in [3]; 4.23 µM (inactive) in test [4]; 1.64 µM (inactive) in [5]; 3.44 µM (inactive) in test [6]. Moreover, the GI50 in test [7] was 15.9 µM (inactive); in test [8], 2.57 µM (inactive); in [9], 5.35 µM (inactive); in test [10], 3.13 µM (inactive); in test [11], 17.7 µM (inactive); in [12] it was 1.42 µM (inactive). For the same compound, the GI50 is 3.69 µM (inactive) in test [19]; 4.97 µM (inactive) in test [13]; 4.49 µM (inactive) in test [14]; 6.41 µM (inactive) in [20]; 3.17 µM (inactive) in [15]; 3.38 µM (inactive) in test [16]. Besides, the GI50 in test [17] is 3.63 µM (inactive); in test [18], 8.79 µM (inactive).
As to `CC1(C)C2CC(O)C1CCC2=O` (stereo unspecified), the GI50 in [1], in test [2], in test [3], in [4], in [5] and in test [6] was > 100 µM (inactive) each time. Besides, the GI50 in test [7], in [8], in [9], in test [10], in test [11] and in test [12] was > 100 µM (inactive) in each case. The GI50 in [19], in test [13], in test [14], in test [20], in test [15] and in [16] was > 100 µM (inactive) in each case. Besides, the GI50 in [18] was > 100 µM (inactive).
On to `COC(=O)C(Cc1ccccc1I)C1=CCC2(CC1)OCCO2` (stereo unspecified), for which the GI50 in test [1] is 22.4 µM (inactive); in test [2] it was 36.6 µM (inactive); in test [3] it was 31.6 µM (inactive); in test [5], 18.7 µM (inactive); in [6], 31.8 µM (inactive); in test [7], 26.6 µM (inactive). The GI50 in test [8] is 27.3 µM (inactive); in test [9] it was 23.3 µM (inactive); in test [10], 22.3 µM (inactive); in test [11], 54.5 µM (inactive); in test [12], 20 µM (inactive); in [19], 21.4 µM (inactive). Also, the GI50 is 26.4 µM (inactive) in test [13]; 33.3 µM (inactive) in test [14]; 37.2 µM (inactive) in test [20]; 63.8 µM (inactive) in test [15]; 16.8 µM (inactive) in test [16]; 44.4 µM (inactive) in test [17]. The GI50 in [18] is 23.3 µM (inactive).
As to `CC1(C)O[C@H]([C@H](O)c2nnc3ccc(Cl)nn23)[C@@H]([C@H]2COC(C)(C)O2)O1`, the GI50 in test [1], in test [2], in test [3], in test [4], in [5] and in [6] was > 100 µM (inactive) in each case. Besides, the GI50 in test [7], in test [9], in test [10], in [11], in test [12] and in [19] was > 100 µM (inactive) in each case. Moreover, the GI50 in [13], in [14], in [20], in [15], in test [16] and in test [17] was > 100 µM (inactive) throughout.
`O=C(O)/C(=C/C(=O)c1ccc(Cl)cc1)NNc1ccc([N+](=O)[O-])cc1[N+](=O)[O-]`: the GI50 in [1] is 40.6 µM (inactive); in test [2], 31.8 µM (inactive); in test [3], 59.8 µM (inactive); in [4] it was 19.6 µM (inactive); in [5], 49.3 µM (inactive); in [6], 64.1 µM (inactive). Also, the GI50 is 31.2 µM (inactive) in test [7]; 36.9 µM (inactive) in [8]; 75.3 µM (inactive) in [9]; 42.1 µM (inactive) in [10]; 36.8 µM (inactive) in test [11]; 67.9 µM (inactive) in test [12]. In addition, the GI50 in test [19] was 42 µM (inactive); in test [13], 44.1 µM (inactive); in [14], 34.3 µM (inactive); in test [20] it was 19.7 µM (inactive); in test [15] it was 35.3 µM (inactive); in [16], > 100 µM (inactive). In addition, the GI50 in [18] is 20.8 µM (inactive).
For `CCOC(=O)c1ccc(Nc2nc3ccccc3nc2-c2cccs2)cc1`, the GI50 in [1] was 66.4 µM (inactive); in test [2] it was 47.8 µM (inactive); in test [3] it was 23.1 µM (inactive); in test [4] it was 80.5 µM (inactive); in test [5], 24.8 µM (inactive); in test [7], > 100 µM (inactive). Moreover, the GI50 in test [8] is 46.8 µM (inactive); in [9], 21.9 µM (inactive); in test [11] it was 18.7 µM (inactive); in test [12] it was 36.9 µM (inactive); in test [19], 23.6 µM (inactive); in [13], > 100 µM (inactive). The GI50 is 34 µM (inactive) in test [14]; > 100 µM (inactive) in test [15]; 98.6 µM (inactive) in test [16]; > 10 µM (inactive) in test [17]; 73.6 µM (inactive) in [18].
Take `Cc1c2oc3c(C)ccc(C(=O)NC4C(=O)NC(C(C)C)C(=O)N5CCCC5C(=O)N(C)CC(=O)N(C)C(Cc5cnc[nH]5)C(=O)OC4C)c3nc-2c(C(=O)NC2C(=O)NC(C(C)C)C(=O)N3CCCC3C(=O)N(C)CC(=O)N(C)C(Cc3cnc[nH]3)C(=O)OC2C)c(N)c1=O` (stereo unspecified) (I: TVP[Sar][NMeH] / II: TVP[Sar][NMeH]; ester I:1-I:C, II:1-II:C; linker I:N-II:N via Actinocin(9to1); configuration not given here): the GI50 is 61.9 µM (inactive) in [1]; 51.3 µM (inactive) in [2]; 37.8 µM (inactive) in [3]; 63.7 µM (inactive) in test [5]; 31.8 µM (inactive) in [6]; 1 µM (active) in test [7]. The GI50 in test [8] is 39.4 µM (inactive); in test [9] it was 20.2 µM (inactive); in [10] it was 68.5 µM (inactive); in [11], > 100 µM (inactive); in [12], 63.4 µM (inactive); in test [19] it was 37.3 µM (inactive). The GI50 in test [13] is 65.5 µM (inactive); in test [14] it was 37.7 µM (inactive); in test [20], > 100 µM (inactive); in [15] it was 28.8 µM (inactive); in test [16], 16.9 µM (inactive); in test [17], 27.4 µM (inactive). Also, the GI50 in [18] was 46.8 µM (inactive).
`CC(=O)OC[C@@]12C[C@H]3C(=O)C(C)(C)C[C@H]3[C@]1(C)[C@@H](OC(C)=O)[C@]1(O)[C@H]([C@@H](OC(=O)c3ccccc3)[C@@H](C)[C@H]1OC(C)=O)[C@H]2OC(C)=O`: the GI50 is > 20 µM (inactive) in test [2]; > 20 µM (inactive) in [3]; > 20 µM (inactive) in [4]; 4.92 µM (inactive) in test [5]; > 20 µM (inactive) in test [7]; 6.87 µM (inactive) in test [8]. The GI50 in test [9] is > 20 µM (inactive); in test [10], > 20 µM (inactive); in test [11] it was > 20 µM (inactive); in test [12] it was > 20 µM (inactive); in test [19], 9.02 µM (inactive); in test [13], > 20 µM (inactive). The GI50 in test [14] was 6.19 µM (inactive); in test [20], > 20 µM (inactive); in test [15], 16.5 µM (inactive); in test [16] it was > 20 µM (inactive); in [17] it was > 20 µM (inactive); in test [18] it was > 20 µM (inactive).
On to `COc1cc2c(cc1OC)C(Cl)C(c1ccc(F)cc1)=C2Cl` (stereo unspecified), for which the GI50 in test [1] was 14.9 µM (inactive); in [2] it was 13.2 µM (inactive); in test [3] it was 15.1 µM (inactive); in test [4], 12.9 µM (inactive); in test [5] it was 5.68 µM (inactive); in [6], 15.9 µM (inactive). Further, the GI50 in test [7] is 11.7 µM (inactive); in test [8], 6.12 µM (inactive); in [9] it was 11.6 µM (inactive); in test [10], 15.4 µM (inactive); in test [11], 13.8 µM (inactive); in test [12], 11.4 µM (inactive). Further, the GI50 in test [19] was 5.41 µM (inactive); in test [13], 11.8 µM (inactive); in [14] it was 11.5 µM (inactive); in test [15], 16.3 µM (inactive); in [16], 14.1 µM (inactive); in test [17] it was 12.3 µM (inactive). In addition, the GI50 in [18] was 13.5 µM (inactive).
